Assay results from US11000033B2, “Ketone or oxime compound, and herbicide” (NISSAN CHEMICAL CORPORATION, priority 2014, dated 2021).

Key:
Format in all cases: in vivo
Veronica persica = assay: Test Example 5: herbicidal effect by foliage application, plastic box (symbol R); conditions: 320 g/ha, 3 weeks after application
Outline: (§1)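 Visual herbicidal score, taken three weeks post-application, of seedlings sprayed on the foliage with water-diluted emulsion at a predetermined amount; plants were 14 days old, greenhouse-raised at 25° C. to 30° C.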

Digitaria ciliaris [1] = assay: Test Example 5: herbicidal effect by foliage application, plastic box (symbol F); conditions: 320 g/ha, 3 weeks after application
Outline: as §1

rice plant = assay: Test Example 5: effect on crop by foliage application, plastic box (symbol b); conditions: 320 g/ha, 3 weeks after application
Outline: (§2)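 Sterilized diluvial soil, plastic box (21 × 13 × 7 cm); spot sowing, ~1.5 cm soil cover; greenhouse 25–30° C.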

[2] = test system: Echinochloa crus-galli var. crus-galli; assay: Test Example 3: herbicidal effect by foliage application, Wagner pot (symbol H); conditions: application herbicide amount 320 g/ha
Outline: (§3)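 Foliar spray of water-diluted emulsion formulation at a predetermined herbicide amount onto 14-day-old plants in flooded alluvial soil (water depth 0.1–0.5 cm), greenhouse 25–30 °C; rice sown alongside. Scored 3 wk post-application on set criteria.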

rapeseed = assay: Test Example 4: effect on crop by soil treatment (symbol g); conditions: 320 g/ha
Outline: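 Grown at 25° C. to 30° C. in a greenhouse, the crops came from seed sown spot-wise in sterilized diluvial soil under roughly 1.5 cm of covering soil.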

Chenopodium album = assay: Test Example 5: herbicidal effect by foliage application, plastic box (symbol O); conditions: 320 g/ha, 3 weeks after application
Outline: as §1

Abutilon theophrasti = assay: Test Example 4: herbicidal effect by soil treatment (symbol M); conditions: 320 g/ha
Outline: (§4)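 Seeds were sown in sterilized diluvial soil, covered with about 1.5 cm of soil, and the soil surface was sprayed with a water-diluted emulsion of the compound at a predetermined rate. Plants grew in a greenhouse at 25° C. to 30° C.; effects were scored visually 3 weeks after application.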

wheat = assay: Test Example 5: effect on crop by foliage application, plastic box (symbol e); conditions: 320 g/ha, 3 weeks after application
Outline: as §2

[3] = test system: Echinochloa crus-galli var. crus-galli; assay: Test Example 4: herbicidal effect by soil treatment (symbol H); conditions: 320 g/ha
Outline: as §4

Digitaria ciliaris [4] = assay: Test Example 4: herbicidal effect by soil treatment (symbol F); conditions: 320 g/ha
Outline: as §4

Lolium multiflorum Lam. = assay: Test Example 4: herbicidal effect by soil treatment (symbol K); conditions: 320 g/ha
Outline: as §4

Leptochloa chinensis = assay: Test Example 3: herbicidal effect by foliage application, Wagner pot (symbol D); conditions: application herbicide amount 320 g/ha
Outline: as §3

Amaranthus retroflexus [5] = assay: Test Example 4: herbicidal effect by soil treatment (symbol N); conditions: 320 g/ha
Outline: as §4

Avena fatua = assay: Test Example 5: herbicidal effect by foliage application, plastic box (symbol I); conditions: 320 g/ha, 3 weeks after application
Outline: as §1

Scirpus juncoides = assay: Test Example 2: herbicidal activity, application during weed generation in submerged conditions (symbol B); conditions: Table 23; application herbicide amount 320 g/ha; grade 0-5 by criteria of Test Example 1
Outline: (§5)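 Paddy pot test, submerged (4 cm water), alluvial soil, mixed sowing; greenhouse 25–30° C. Emulsion formulation diluted to predetermined rate, applied onto floodwater at 1–2 leaf stage. Visual herbicidal rating at 3 wk post-treatment.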

Amaranthus retroflexus [6] = assay: Test Example 5: herbicidal effect by foliage application, plastic box (symbol N); conditions: 320 g/ha, 3 weeks after application
Outline: as §1

[7] = test system: Echinochloa oryzacola Vasing.; assay: Test Example 2: herbicidal activity, application during weed generation in submerged conditions (symbol A); conditions: Table 23; application herbicide amount 320 g/ha; grade 0-5 by criteria of Test Example 1
Outline: as §5

Apera spica-venti = assay: Test Example 4: herbicidal effect by soil treatment (symbol L); conditions: 320 g/ha
Outline: as §4

Stellaria media = assay: Test Example 5: herbicidal effect by foliage application, plastic box (symbol P); conditions: 320 g/ha, 3 weeks after application
Outline: as §1

beet = assay: Test Example 5: effect on crop by foliage application, plastic box (symbol f); conditions: 320 g/ha, 3 weeks after application
Outline: as §2

CON=C(C)CC1CC(OS(=O)(=O)C2CC2)=C(c2c(C)cc(C)cc2C)C1=O (stereo not drawn) [1-143]
R: Veronica persica, herbicidal effect (criteria 0-5) (Veronica persica): 0 (Herbicidal ratio of 5% or lower (almost no effect))
F: Digitaria ciliaris, herbicidal effect (criteria 0-5) (Digitaria ciliaris [1]): 5 (Herbicidal ratio of 90% or more (almost completely withered))
b: directly sowed rice plant, effect on crop (criteria 0-5) (rice plant): 2 (Herbicidal ratio of 20% or higher and lower than 40%)
herbicidal effect on H (Echinochloa crus-galli var. crus-galli), grade 0-5 [2]: 4 (Herbicidal ratio of 70% or higher and lower than 90%)
g: rapeseed, effect grade on crop (rapeseed): 0 (Herbicidal ratio of 5% or lower (almost no effect))
O: Chenopodium album, herbicidal effect (criteria 0-5) (Chenopodium album): 0 (Herbicidal ratio of 5% or lower (almost no effect))
M: Abutilon theophrasti, herbicidal effect grade (Abutilon theophrasti): 0 (Herbicidal ratio of 5% or lower (almost no effect))
e: wheat, effect on crop (criteria 0-5) (wheat): 3 (Herbicidal ratio of 40% or higher and lower than 70%)
H: Echinochloa crus-galli var. crus-galli, herbicidal effect grade [3]: 0 (Herbicidal ratio of 5% or lower (almost no effect))
F: Digitaria ciliaris, herbicidal effect grade (Digitaria ciliaris [4]): 1 (Herbicidal ratio of 5% or higher and lower than 20%)
K: Lolium multiflorum Lam., herbicidal effect grade (Lolium multiflorum Lam.): 4 (Herbicidal ratio of 70% or higher and lower than 90%)
herbicidal effect on D (Leptochloa chinensis), grade 0-5 (Leptochloa chinensis): 4 (Herbicidal ratio of 70% or higher and lower than 90%)
N: Amaranthus retroflexus, herbicidal effect grade (Amaranthus retroflexus [5]): 0 (Herbicidal ratio of 5% or lower (almost no effect))
I: Avena fatua, herbicidal effect (criteria 0-5) (Avena fatua): 5 (Herbicidal ratio of 90% or more (almost completely withered))
Herbicidal effect grade, B: Scirpus juncoides (Scirpus juncoides): 4 (Herbicidal ratio of 70% or higher and lower than 90%)
N: Amaranthus retroflexus, herbicidal effect (criteria 0-5) (Amaranthus retroflexus [6]): 1 (Herbicidal ratio of 5% or higher and lower than 20%)
Herbicidal effect grade, A: Echinochloa oryzacola Vasing. [7]: 4 (Herbicidal ratio of 70% or higher and lower than 90%)
L: Apera spica-venti, herbicidal effect grade (Apera spica-venti): 5 (Herbicidal ratio of 90% or more (almost completely withered))
P: Stellaria media, herbicidal effect (criteria 0-5) (Stellaria media): 0 (Herbicidal ratio of 5% or lower (almost no effect))
f: beet, effect on crop (criteria 0-5) (beet): 0 (Herbicidal ratio of 5% or lower (almost no effect))

CON=C(C)CC1CC(OC(=O)OCc2ccccc2)=C(c2c(C)cc(C)cc2C)C1=O (stereo not drawn) [1-145]
R: Veronica persica, herbicidal effect (criteria 0-5) (Veronica persica): 3 (Herbicidal ratio of 40% or higher and lower than 70%)
F: Digitaria ciliaris, herbicidal effect (criteria 0-5) (Digitaria ciliaris [1]): 5 (Herbicidal ratio of 90% or more (almost completely withered))
b: directly sowed rice plant, effect on crop (criteria 0-5) (rice plant): 5 (Herbicidal ratio of 90% or more (almost completely withered))
herbicidal effect on H (Echinochloa crus-galli var. crus-galli), grade 0-5 [2]: 5 (Herbicidal ratio of 90% or more (almost completely withered))
g: rapeseed, effect grade on crop (rapeseed): 4 (Herbicidal ratio of 70% or higher and lower than 90%)
O: Chenopodium album, herbicidal effect (criteria 0-5) (Chenopodium album): 1 (Herbicidal ratio of 5% or higher and lower than 20%)
M: Abutilon theophrasti, herbicidal effect grade (Abutilon theophrasti): 4 (Herbicidal ratio of 70% or higher and lower than 90%)
e: wheat, effect on crop (criteria 0-5) (wheat): 5 (Herbicidal ratio of 90% or more (almost completely withered))
H: Echinochloa crus-galli var. crus-galli, herbicidal effect grade [3]: 5 (Herbicidal ratio of 90% or more (almost completely withered))
F: Digitaria ciliaris, herbicidal effect grade (Digitaria ciliaris [4]): 5 (Herbicidal ratio of 90% or more (almost completely withered))
K: Lolium multiflorum Lam., herbicidal effect grade (Lolium multiflorum Lam.): 5 (Herbicidal ratio of 90% or more (almost completely withered))
herbicidal effect on D (Leptochloa chinensis), grade 0-5 (Leptochloa chinensis): 5 (Herbicidal ratio of 90% or more (almost completely withered))
N: Amaranthus retroflexus, herbicidal effect grade (Amaranthus retroflexus [5]): 4 (Herbicidal ratio of 70% or higher and lower than 90%)
I: Avena fatua, herbicidal effect (criteria 0-5) (Avena fatua): 5 (Herbicidal ratio of 90% or more (almost completely withered))
Herbicidal effect grade, B: Scirpus juncoides (Scirpus juncoides): 5 (Herbicidal ratio of 90% or more (almost completely withered))
N: Amaranthus retroflexus, herbicidal effect (criteria 0-5) (Amaranthus retroflexus [6]): 0 (Herbicidal ratio of 5% or lower (almost no effect))
Herbicidal effect grade, A: Echinochloa oryzacola Vasing. [7]: 5 (Herbicidal ratio of 90% or more (almost completely withered))
L: Apera spica-venti, herbicidal effect grade (Apera spica-venti): 5 (Herbicidal ratio of 90% or more (almost completely withered))
P: Stellaria media, herbicidal effect (criteria 0-5) (Stellaria media): 2 (Herbicidal ratio of 20% or higher and lower than 40%)
f: beet, effect on crop (criteria 0-5) (beet): 2 (Herbicidal ratio of 20% or higher and lower than 40%)

C=CCOC(=O)OC1=C(c2c(C)cc(C)cc2C)C(=O)C(CC(C)=NOC)C1 (stereo not drawn) [1-146]
R: Veronica persica, herbicidal effect (criteria 0-5) (Veronica persica): 3 (Herbicidal ratio of 40% or higher and lower than 70%)
F: Digitaria ciliaris, herbicidal effect (criteria 0-5) (Digitaria ciliaris [1]): 5 (Herbicidal ratio of 90% or more (almost completely withered))
b: directly sowed rice plant, effect on crop (criteria 0-5) (rice plant): 5 (Herbicidal ratio of 90% or more (almost completely withered))
herbicidal effect on H (Echinochloa crus-galli var. crus-galli), grade 0-5 [2]: 5 (Herbicidal ratio of 90% or more (almost completely withered))
g: rapeseed, effect grade on crop (rapeseed): 5 (Herbicidal ratio of 90% or more (almost completely withered))
O: Chenopodium album, herbicidal effect (criteria 0-5) (Chenopodium album): 2 (Herbicidal ratio of 20% or higher and lower than 40%)
M: Abutilon theophrasti, herbicidal effect grade (Abutilon theophrasti): 5 (Herbicidal ratio of 90% or more (almost completely withered))
e: wheat, effect on crop (criteria 0-5) (wheat): 5 (Herbicidal ratio of 90% or more (almost completely withered))
H: Echinochloa crus-galli var. crus-galli, herbicidal effect grade [3]: 5 (Herbicidal ratio of 90% or more (almost completely withered))
F: Digitaria ciliaris, herbicidal effect grade (Digitaria ciliaris [4]): 5 (Herbicidal ratio of 90% or more (almost completely withered))
K: Lolium multiflorum Lam., herbicidal effect grade (Lolium multiflorum Lam.): 5 (Herbicidal ratio of 90% or more (almost completely withered))
herbicidal effect on D (Leptochloa chinensis), grade 0-5 (Leptochloa chinensis): 5 (Herbicidal ratio of 90% or more (almost completely withered))
N: Amaranthus retroflexus, herbicidal effect grade (Amaranthus retroflexus [5]): 5 (Herbicidal ratio of 90% or more (almost completely withered))
I: Avena fatua, herbicidal effect (criteria 0-5) (Avena fatua): 5 (Herbicidal ratio of 90% or more (almost completely withered))
Herbicidal effect grade, B: Scirpus juncoides (Scirpus juncoides): 5 (Herbicidal ratio of 90% or more (almost completely withered))
N: Amaranthus retroflexus, herbicidal effect (criteria 0-5) (Amaranthus retroflexus [6]): 0 (Herbicidal ratio of 5% or lower (almost no effect))
Herbicidal effect grade, A: Echinochloa oryzacola Vasing. [7]: 5 (Herbicidal ratio of 90% or more (almost completely withered))
L: Apera spica-venti, herbicidal effect grade (Apera spica-venti): 5 (Herbicidal ratio of 90% or more (almost completely withered))
P: Stellaria media, herbicidal effect (criteria 0-5) (Stellaria media): 3 (Herbicidal ratio of 40% or higher and lower than 70%)
f: beet, effect on crop (criteria 0-5) (beet): 4 (Herbicidal ratio of 70% or higher and lower than 90%)
